In paper PMC11855827, “High-Throughput Screening of Five Compound Libraries for Anthelmintic Activity and Toxicity Leads to the Discovery of Two Flavonoid Compounds” (International Journal of Molecular Sciences, 2025):
Where “and” joins values, the source holds several entries; their conditions need not be identical. Equal values may be shown once. Read-outs that look alike come from different tables or passages of the source.

Legend:
C. elegans [1] = experiment: microbe, parasite or virus in culture; settings: Caenorhabditis elegans
C. elegans [2] = tested on: C. elegans
[3] = 24 h, read-out: Percentage of motility inhibition 24 h, Table S2, C. elegans SS assay, 110 μM, 24 h, averages of 4 data points
[4] = Table S2, C. elegans SS assay, 110 μM, 24 h, averages of 4 data points
[5] = 0 h, read-out: Percentage of motility inhibition 0 h, Table S2, C. elegans SS assay, 110 μM, 0 h, averages of 4 data points
[6] = Table S2, C. elegans SS assay, 110 μM, averages of 4 data points
[7] = 0 h, read-out: Percentage of motility inhibition 0 h
[8] = 24 h, read-out: Percentage of motility inhibition 24 h

Structure (SMILES)	inhibition at 110 µM (C. elegans [1]; [3]) [%]	Percentage of motility inhibition 24 h (C. elegans [2]; [4])	inhibition at 110 µM (C. elegans [1]; [5]) [%]	also measured
CC1(C)[C@@H](O)CC[C@]2(C)[C@H]3C(=O)C=C4[C@H]5C[C@@](C)(C(=O)O)CC[C@]5(C)CC[C@@]4(C)[C@]3(C)CC[C@@H]12 [18α-Glycyrrhetinic acid]	18	10%		
CC[C@H]1[C@@H]2C[C@H]3[C@@H]4N(C)c5ccccc5[C@]45C[C@@H]([C@H]2[C@H]5O)N3[C@@H]1O [Ajmaline]			19	Percentage of motility inhibition 0 h (C. elegans [2]; [6]): 13%
C=C1CC[C@@H]2[C@](C)(CO)[C@H](O)CC[C@@]2(C)[C@@H]1C/C=C1/C(=O)OC[C@H]1O [Andrographolide]	17	19%		
C[C@H]1[C@H](OC(=O)CCC(=O)O)O[C@@H]2O[C@@]3(C)CC[C@H]4[C@H](C)CC[C@@H]1[C@@]24OO3 [Artesunate]	30	15%	12	Percentage of motility inhibition 0 h (C. elegans [2]; [6]): 21%
O=c1cc(-c2ccccc2)oc2cc(O)c(O)c(O)c12 [Baicalein]	12		10	Percentage of motility inhibition 0 h (C. elegans [2]; 110 μM): 14%; Percentage of motility inhibition 24 h (C. elegans [2]; 24 h, 110 µM): 19%
O=C(O)[C@H]1O[C@@H](Oc2cc3oc(-c4ccccc4)cc(=O)c3c(O)c2O)[C@H](O)[C@@H](O)[C@@H]1O [Baicalin]	15			Percentage of motility inhibition 24 h (C. elegans [2]; 24 h, 110 µM): 24%
C=C(C)[C@@H]1CC[C@]2(C(=O)O)CC[C@]3(C)[C@H](CC[C@@H]4[C@@]5(C)CC[C@H](O)C(C)(C)[C@@H]5CC[C@]43C)[C@@H]12 [Betulinic acid]			27	Percentage of motility inhibition 0 h (C. elegans [2]; [6]): 22%
CC12CCC(CC1=O)C2(C)C (stereo not drawn) [Camphor]	5	10%	0	
CC[C@@]1(O)C(=O)OCc2c1cc1n(c2=O)Cc2cc3ccccc3nc2-1 [Camptothecin]	6	3%	25	
O=c1c(-c2ccc(O)cc2)coc2cc(O)ccc12 [Daidzein]	14	10%		
COC(=O)[C@H]1[C@H]2C[C@@H]3c4[nH]c5ccccc5c4CCN3C[C@H]2C[C@@H](OC(=O)c2cc(OC)c(OC)c(OC)c2)[C@@H]1OC [Deserpidine]	21	23%		
CC[C@H]1OC(=O)[C@H](C)[C@@H](O[C@H]2C[C@@](C)(OC)[C@@H](O)[C@H](C)O2)[C@H](C)[C@@H](O[C@@H]2O[C@H](C)C[C@H](N(C)C)[C@H]2O)[C@](C)(O)C[C@@H](C)C(=O)[C@H](C)[C@@H](O)[C@]1(C)O [Erythromycin]	5			Percentage of motility inhibition 0 h (C. elegans [2]; [6]): 10% and 0%
Cc1ccc(C(C)C)cc2c(C)ccc1-2 [Guaiazulene]	24			Percentage of motility inhibition 24 h (C. elegans [2]; 24 h, 110 µM): 12%
COC(=O)C[C@](O)(CCCC(C)(C)O)C(=O)O[C@@H]1C(OC)=C[C@]23CCCN2CCc2cc4c(cc2[C@H]13)OCO4 [Homoharringtonine]		2% and 0%	20	Percentage of motility inhibition 0 h (C. elegans [2]; [6]): 12%
CC1=C[C@]23C(=O)[C@@H](C=C(CO)[C@@H](O)[C@]2(O)[C@H]1O)[C@H]1[C@@H](C[C@H]3C)C1(C)C [Ingenol]	19			Percentage of motility inhibition 0 h (C. elegans [2]; [6]): 0% and 1%
COc1ccc2c(c1O)-c1c(OC)c(OC)cc3c1[C@H](C2)N(C)CC3 [Isocorydine]		7%	0	
C[C@H]1C(=O)O[C@@H]2CCN3CC=C(COC(=O)[C@](C)(O)[C@]1(C)O)[C@H]23 [Monocrotaline]	12	15%		Percentage of motility inhibition 0 h (C. elegans [2]; [6]): 2%
CCn1cc(C(=O)O)c(=O)c2ccc(C)nc21 [Nalidixic acid]	18	26%	27	Percentage of motility inhibition 0 h (C. elegans [2]; [6]): 22%
CC1(C)CC[C@]2(C(=O)O)CC[C@]3(C)C(=CC[C@@H]4[C@@]5(C)CC[C@H](O)C(C)(C)[C@@H]5CC[C@]43C)[C@@H]2C1 [Oleanolic Acid]				inhibition at 110 µM (C. elegans [1]; [7]): 4%; Percentage of motility inhibition 24 h (C. elegans [2]; 110 µM): 1% and 0%
O=C1CCC[C@@H]2[C@H]3CCC[N+]4([O-])CCC[C@@H](CN12)[C@@H]34 (stereo partly drawn) [Oxymatrine]	11			Percentage of motility inhibition 24 h (C. elegans [2]; 24 h, 110 µM): 6%
CC1(C)CCC[C@](C)([C@H]2CC[C@]3(C)[C@@H]2[C@H](O)C[C@@H]2[C@@]4(C)CC[C@H](O)C(C)(C)[C@@H]4[C@@H](O)C[C@]23C)O1 [Panaxatriol]	15	11%		
CC(C)(O)[C@H]1O[C@H]2CC[C@@]3(C)[C@@](O)(CC[C@H]4Cc5c([nH]c6ccccc56)[C@@]43C)C2=CC1=O [Paxilline]		0% and 8%	12	
COC(=O)[C@]1(C)CC[C@]2(C)CC[C@]3(C)C4=CC=C5C(=CC(=O)C(O)=C5C)[C@]4(C)CC[C@@]3(C)[C@@H]2C1 [Pristimerin]	23	24%	29	Percentage of motility inhibition 0 h (C. elegans [2]; [6]): 15%
CC(C)=CCC/C(C)=C/CC/C(C)=C/CC/C=C(\C)CC/C=C(\C)CCC=C(C)C [Squalene]	11		4	Percentage of motility inhibition 24 h (C. elegans [2]; 24 h, 110 µM): 19%
CNCC(O)c1ccc(O)cc1 (stereo not drawn) [Synephrine]		24%	16	

Structure (SMILES)	inhibition at 110 µM (C. elegans [1]; [3]) [%]	Percentage of motility inhibition 24 h (C. elegans [2]; [4])	inhibition at 110 µM (C. elegans [1]; [5]) [%]	also measured
COc1ccc2cc1Oc1ccc(cc1)C[C@H]1c3cc(c(OC)cc3CCN1C)Oc1c(OC)c(OC)cc3c1[C@H](C2)N(C)CC3 [Tetrandrine]	16			Percentage of motility inhibition 24 h (C. elegans [2]; 24 h, 110 µM): 12%
Nc1ncnc2c1ncn2[C@@H]1O[C@H](CO)[C@@H](O)[C@@H]1O [Vidarabine]	0			Percentage of motility inhibition 0 h (C. elegans [2]; [6]): 4%
OC[C@@H](O)[C@H](O)[C@@H](O)CO [Xylitol]	13		22	
O=C[C@H](O)[C@@H](O)[C@H](O)CO [Xylose]	11		17	
CC1=CC(=O)[C@@H](O)[C@]2(C)[C@H]3[C@@H](O)[C@H](O)[C@]4(CO)OC[C@@]35[C@@H](C[C@@H]12)OC(=O)[C@H](O)[C@]54O [Yadanziolide A]	36		0	
O=C(O)[C@@H]1[C@H]2C[C@H]3c4[nH]c5ccccc5c4CCN3C[C@@H]2CC[C@@H]1O [Yohimbic acid]	51		4	
COC(=O)[C@@H]1[C@H]2C[C@H]3c4[nH]c5ccccc5c4CCN3C[C@@H]2CC[C@@H]1O [Yohimbine]			7	Percentage of motility inhibition 0 h (C. elegans [2]; 110 μM): 8%
CCN1C[C@]2(COC)[C@H](O)C[C@H](OC)[C@]34C1[C@H]([C@H](OC)[C@H]23)[C@@]1(OC(C)=O)C[C@H](OC)[C@@]2(O)C[C@@H]4[C@@H]1[C@H]2OC(=O)c1ccc(OC)cc1 [Yunaconitine]	5		24	
Nc1ccn([C@H]2CC[C@@H](CO)O2)c(=O)n1 [Zalcitabine]	20		19	
CC(=O)N[C@H]1[C@H]([C@H](O)[C@H](O)CO)OC(C(=O)O)=C[C@@H]1N=C(N)N [Zanamivir]	6		22	
Cc1cn([C@H]2C[C@H](N=[N+]=[N-])[C@@H](CO)O2)c(=O)[nH]c1=O [Zidovudine]	4		7	
CCCCC[C@H](O)CC(=O)CCc1ccc(O)c(OC)c1 [[6]‐Gingerol]	10		1	
C[C@@H]1O[C@@H](O[C@H]2[C@H](O[C@H]3CC[C@@]4(C)[C@@H](CC[C@]5(C)[C@@H]4CC=C4[C@@H]6CC(C)(C)CC[C@]6(C(=O)O)CC[C@]45C)[C@]3(C)CO)OC[C@H](O)[C@@H]2O)[C@H](O)[C@H](O)[C@H]1O [alpha-Hederin]				inhibition at 110 µM (C. elegans [1]; [7]): 6%; inhibition at 110 µM (C. elegans [1]; [8]): 0%
O[C@H]1[C@H](O)[C@@H](O)[C@H](O)[C@@H](O)[C@H]1O [i-Inositol]	0		0	
O=C(O)CCCCC1CCSS1 (stereo not drawn) [α-Lipoic Acid]	3		9	
CC1=CC[C@@H](C(C)(C)O)CC1 [α-Terpineol]	17		22	
CC(=O)OC(C)(C)C1CC=C(C)CC1 (stereo not drawn) [α-Terpinyl acetate]	28		18	
CC(C)[C@]12CC(=O)[C@H](C)[C@H]1C2 [α-Thujone]	20		9	
C[C@H]1[C@H](C)CC[C@]2(C)CC[C@]3(C)C(=CC[C@@H]4[C@@]5(C)CC[C@@H](O)[C@](C)(C(=O)O)[C@@H]5CC[C@]43C)[C@H]12 [β-Boswellic acid]				inhibition at 110 µM (C. elegans [1]; [7]): 32%; inhibition at 110 µM (C. elegans [1]; [8]): 22%
C=C1CC/C=C(\C)CC[C@@H]2[C@@H]1CC2(C)C [β-Caryophyllene]	27		28	
CC(C)=CCC[C@H](C(=O)O)[C@H]1CC[C@]2(C)C3=C(CC[C@@]12C)[C@@]1(C)CCC(=O)C(C)(C)[C@H]1CC3 [β-Elemonic acid]	28		23	
C=C1C=CC(C(C)C)CC1 (stereo not drawn) [β-Phellandrene]	20		17	
C=C1CCC2CC1C2(C)C (stereo not drawn) [β-Pinene]	12		2	
CC1=CCC(C(C)C)=CC1 [γ-Terpinene]	31		6	
